The target of the assay is T1, ligand-binding domain of the human VDR linked to the DNA-binding domain of the yeast transcription factor GAL4 (Homo sapiens, UniProt P11473).
T1 construct: expressed in transfected cells; host or cells: HEK293
T1 sequence (P11473 127-423 limits assumed): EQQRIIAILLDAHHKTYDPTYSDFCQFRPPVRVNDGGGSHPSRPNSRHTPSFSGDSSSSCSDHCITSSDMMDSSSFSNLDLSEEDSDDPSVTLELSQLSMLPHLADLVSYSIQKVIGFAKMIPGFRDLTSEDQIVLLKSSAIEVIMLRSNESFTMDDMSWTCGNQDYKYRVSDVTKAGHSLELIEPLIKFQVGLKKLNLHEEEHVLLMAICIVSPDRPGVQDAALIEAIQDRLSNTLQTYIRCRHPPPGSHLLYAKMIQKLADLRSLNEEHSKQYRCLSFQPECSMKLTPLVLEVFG
Kind of assay: Human vitamin D receptor (VDR) agonist activity, cell based GAL4 hybrid luciferase transactivation assay. To be noted: HEK293 cells transiently transfected with VDR-LBD/GAL4 hybrid receptor and pFR-Luc reporter; 16 h incubation; luciferase luminescence; read-out: Effective concentrations of half maximal activation (EC50). The source says:
By way of example, the human vitamin D receptor (VDR) agonist activity of the claimed compounds can be tested using a cell based transactivation assay in an eukaryotic cell line. After a co-transfection, using a reporter plasmid construct and a hybrid receptor construct containing the ligand-binding domain of the human VDR linked to the DNA-binding domain of the yeast transcription factor GAL4, the cultured cells were stimulated by the VDR agonists. The hybrid VDR-GAL4 receptor binds the VDR agonists and transactivates luciferase reporter expression through the GAL4-response elements in the promoter of the luciferase gene (reporter construct). The VDR agonist binding and transactivation is determined by measuring the luciferase luminescence activity. The effective concentration of half maximal activation (EC50) was determined for the VDR agonists by means of dose-response experiments. The details of the protocol method of this test according to the invention are described in the example section.
Testing of the Human Vitamin D Receptor (VDR) Agonist Activity of the Compounds
The transient transfections were performed in HEK293 cells (ATCC, Molsheim, France) grown in minimum essential medium (Eagle) with Earle's balanced salt solution without L-glutamine and supplemented with 10% fetal bovine serum (Sigma-Aldrich Corp., St. Gallen, Switzerland), 2 mM glutamax (Life Technologies AG, Basel, Switzerland), 0.1 mM non-essential amino acids (Life Technologies), and 1 mM sodium pyruvate (Life Technologies) at 37° C. in 5% CO2. […] The cells were transiently transfected before stimulation the next day at >80% confluence by polyethylene-imine-based transfection. Compound stocks were prepared in DMSO, pre-diluted in PBS (0.45% final DMSO concentration), and added in the respective dilution 5 h after the addition of the transfection mixture onto the cells. The cells were again incubated for additional 16 h before firefly and renilla luciferases activity was measured sequentially in the same cell extract using buffers according to established protocols (Promega AG, Dübendorf, Switzerland). Transfection efficiency was controlled to the pRL-TK renilla luciferase reporter expression.
Take `CCCC1C(O)c2ccc(CCc3cccc(/C(=C/C=C/C(O)(CC)CC)CC)c3)cc2C1O` (stereo not shown) [Comp1, reference compound]: the EC50 worked out at 210 nM.
The figure for `CC/C(=C\C=C\C(O)(CC)CC)c1cccc(CCc2ccc3c(c2)C(O)C(C)(C)C3O)c1` (stereo not shown) [I-a, (5-(3-((3E,5E)-7-ethyl-7-hydroxynona-3,5-dien-3-yl)phenethyl)-2,2-dimethyl-2,3-dihydro-1H-indene-1,3-diol)] is 14 nM; for `CC/C(=C\C=C\C(O)(CC)CC)c1cccc(CCc2ccc3c(c2)C(O)C(C)C3O)c1` (stereo not shown) [I-b, 5-(3-((3E,5E)-7-ethyl-7-hydroxynona-3,5-dien-3-yl)phenethyl)-2-methyl-2,3-dihydro-1H-indene-1,3-diol] it is 34 nM.
Then `CC/C(=C\C=C\C(O)(CC)CC)c1cccc(CCc2ccc3c(c2)C(O)CC3O)c1` (stereo not shown) [I-c, 5-(3-((3E,5E)-7-ethyl-7-hydroxynona-3,5-dien-3-yl)phenethyl)-2,3-dihydro-M-indene-1,3-diol], with 49 nM.

These data come from patent US11168054B2, “Biaromatic compounds, which are vitamin D analogs” (DSM IP ASSETS B.V., priority 2015, dated 2021).
